Patent US10378060B2, “ZNF365/ZFP365 biomarker predictive of anti-cancer response” (Dana-Farber Cancer Institute, Inc., priority 2011, dated 2019)

Legend:
[1] = test system: MCF7 breast cancer cell line; test: MTT cell proliferation assay; assay type: cell-based; details: MCF7 control (TR) vs shZNF cells, different doses of ABT888 for 48 hours with or without radiation (2 Gy)
Experimental: Control cells of the MCF7 breast cancer cell line (TR), as well as MCF7 cells transfected with shRNAs targeting ZNF365 (shZNF) were treated with different doses of the PARP inhibitor, ABT888, for 48 hours with or without radiation (2 Gy). A standard MTT cell proliferation assay was performed to determine cell viability.

U2OS cells = test: 53BP1-positive DNA damage foci (DSB) staining; assay type: cell-based; details: ZNF365-deficient U2OS cells (shZNF-2 or shZNF-5), additional treatment with 1 μM ABT888
Excerpt: FIGS. 10A-10C show increased DNA double strand breaks (DSB) in ZNF365-deficient cells.
U2OS cells infected with either a control scrambled shRNA (Scr) to establish the basal DSB levels or with either of two independent shRNA sequences targeting ZNF365 (shZNF-2 or shZNF-5) were scored for 53BP1-positive damage foci as an indicator of DSB (FIG. 10A; red highlighted dots indicates foci and dotted circles indicate nuclei). Quantification of the 53BP1-positive foci indicated increased numbers of DSB in ZNF365-deficient cells (FIG. 10B).

In the case of C[C@]1(c2nc3c(C(N)=O)cccc3[nH]2)CCCN1 [ABT888], the cell viability [1] is reported as “ZNF365 deficiency sensitizes cells” and the “53BP1-positive DNA damage foci as an indicator of DSB” value (U2OS cells) is reported as “became more prominent”.
